Measurements taken from the NIST ThermoML archive (doi:10.1021/je4005883).
Numbers after ± are expanded uncertainties.

Columns and labels:
[1] = wn = mass fraction of the nth substance listed; settings: 101.33 kPa, Liquid; for speed of sound: Pulse-echo method; for mass density: Vibrating tube method
[2] = 298.15 K; 101.33 kPa; Liquid; Vibrating tube method

For `CCN1CCCC1=O` [1-ethyl-2-pyrrolidinone] + NCCO, which speed of sound ([1]; 293.15 K, w2 = 0.7) is on record?
The speed of sound was 1653.3 ± 2.6 m/s.

And the speed of sound ([1]; 293.15 K, w2 = 0.8)?
The speed of sound was 1679.7 ± 2.6 m/s.

What about the speed of sound ([1]; 293.15 K, w2 = 0.9) of the same compound?
Its speed of sound is 1706.9 ± 2.7 m/s.

What about the mass density ([1]; 293.15 K, w2 = 0.7) of the same compound?
The mass density was 1009.04 ± 0.66 kg/m3.

What about the mass density ([1]; 293.15 K, w2 = 0.8) of the same compound?
Its mass density is 1011.7 ± 0.64 kg/m3.

And the mass density ([1]; 293.15 K, w2 = 0.9)?
The mass density was 1014.01 ± 0.63 kg/m3.

And the viscosity ([1]; 293.15 K, w2 = 0.7)?
Its viscosity is 12.25 ± 0.24 mPa·s.

What about the viscosity ([1]; 293.15 K, w2 = 0.8) of the same compound?
Its viscosity is 16.01 ± 0.3 mPa·s.

What about the viscosity ([1]; 293.15 K, w2 = 0.9) of the same compound?
Its viscosity is 19.95 ± 0.36 mPa·s.

And the speed of sound ([1]; 303.15 K, w2 = 0.7)?
The speed of sound was 1618.6 ± 2.6 m/s.

What about the speed of sound ([1]; 303.15 K, w2 = 0.8) of the same compound?
Its speed of sound is 1645.9 ± 2.6 m/s.

And the speed of sound ([1]; 303.15 K, w2 = 0.9)?
The speed of sound was 1674 ± 2.7 m/s.

And the mass density ([1]; 303.15 K, w2 = 0.7)?
The mass density was 1000.7 ± 0.66 kg/m3.

And the mass density ([1]; 303.15 K, w2 = 0.8)?
The mass density was 1003.49 ± 0.64 kg/m3.

And the mass density ([1]; 303.15 K, w2 = 0.9)?
The mass density was 1005.95 ± 0.62 kg/m3.

And the viscosity ([1]; 303.15 K, w2 = 0.7)?
The viscosity was 8.104 ± 0.17 mPa·s.

And the viscosity ([1]; 303.15 K, w2 = 0.8)?
Its viscosity is 10.27 ± 0.2 mPa·s.

What about the viscosity ([1]; 303.15 K, w2 = 0.9) of the same compound?
Its viscosity is 12.48 ± 0.23 mPa·s.

What about the speed of sound ([1]; 313.15 K, w2 = 0.7) of the same compound?
Its speed of sound is 1584 ± 2.6 m/s.

And the speed of sound ([1]; 313.15 K, w2 = 0.8)?
Its speed of sound is 1611.7 ± 2.6 m/s.

And the speed of sound ([1]; 313.15 K, w2 = 0.9)?
Its speed of sound is 1641.2 ± 2.7 m/s.

And the mass density ([1]; 313.15 K, w2 = 0.7)?
Its mass density is 992.31 ± 0.66 kg/m3.

What about the mass density ([1]; 313.15 K, w2 = 0.8) of the same compound?
The mass density was 995.23 ± 0.63 kg/m3.

What about the mass density ([1]; 313.15 K, w2 = 0.9) of the same compound?
Its mass density is 997.83 ± 0.62 kg/m3.

And the viscosity ([1]; 313.15 K, w2 = 0.7)?
The viscosity was 5.666 ± 0.12 mPa·s.

And the viscosity ([1]; 313.15 K, w2 = 0.8)?
Its viscosity is 6.967 ± 0.14 mPa·s.

What about the viscosity ([1]; 313.15 K, w2 = 0.9) of the same compound?
The viscosity was 8.35 ± 0.17 mPa·s.

And the speed of sound ([1]; 323.15 K, w2 = 0.7)?
Its speed of sound is 1549.5 ± 2.6 m/s.

And the speed of sound ([1]; 323.15 K, w2 = 0.8)?
The speed of sound was 1578.2 ± 2.6 m/s.

What about the speed of sound ([1]; 323.15 K, w2 = 0.9) of the same compound?
Its speed of sound is 1608 ± 2.7 m/s.

What about the mass density ([1]; 323.15 K, w2 = 0.7) of the same compound?
The mass density was 983.87 ± 0.65 kg/m3.

What about the mass density ([1]; 323.15 K, w2 = 0.8) of the same compound?
The mass density was 986.93 ± 0.63 kg/m3.

And the mass density ([1]; 323.15 K, w2 = 0.9)?
Its mass density is 989.65 ± 0.61 kg/m3.

What about the viscosity ([1]; 323.15 K, w2 = 0.7) of the same compound?
The viscosity was 4.173 ± 0.095 mPa·s.

And the viscosity ([1]; 323.15 K, w2 = 0.8)?
Its viscosity is 5.017 ± 0.11 mPa·s.

What about the viscosity ([1]; 323.15 K, w2 = 0.9) of the same compound?
The viscosity was 5.863 ± 0.13 mPa·s.

With `CCN1CCCC1=O` [1-ethyl-2-pyrrolidinone] + O as the compound, how does the speed of sound ([1]; 293.15 K, w2 = 0.7) read?
Its speed of sound is 1671.7 ± 2.6 m/s.

What about the speed of sound ([1]; 293.15 K, w2 = 0.8) of the same compound?
The speed of sound was 1620 ± 2.6 m/s.

And the speed of sound ([1]; 293.15 K, w2 = 0.9)?
The speed of sound was 1555.7 ± 2.5 m/s.

And the mass density ([1]; 293.15 K, w2 = 0.7)?
Its mass density is 1013.82 ± 0.58 kg/m3.

What about the mass density ([1]; 293.15 K, w2 = 0.8) of the same compound?
Its mass density is 1007.67 ± 0.57 kg/m3.

And the mass density ([1]; 293.15 K, w2 = 0.9)?
Its mass density is 1002.08 ± 0.57 kg/m3.

What about the viscosity ([1]; 293.15 K, w2 = 0.7) of the same compound?
Its viscosity is 2.857 ± 0.065 mPa·s.

What about the viscosity ([1]; 293.15 K, w2 = 0.8) of the same compound?
The viscosity was 2.068 ± 0.048 mPa·s.

And the viscosity ([1]; 293.15 K, w2 = 0.9)?
Its viscosity is 1.474 ± 0.035 mPa·s.

What about the speed of sound ([1]; 303.15 K, w2 = 0.7) of the same compound?
Its speed of sound is 1658.9 ± 2.6 m/s.

What about the speed of sound ([1]; 303.15 K, w2 = 0.8) of the same compound?
The speed of sound was 1620 ± 2.6 m/s.

What about the speed of sound ([1]; 303.15 K, w2 = 0.9) of the same compound?
The speed of sound was 1568.9 ± 2.5 m/s.

What about the mass density ([1]; 303.15 K, w2 = 0.7) of the same compound?
The mass density was 1008.12 ± 0.58 kg/m3.

What about the mass density ([1]; 303.15 K, w2 = 0.8) of the same compound?
The mass density was 1003.22 ± 0.57 kg/m3.

And the mass density ([1]; 303.15 K, w2 = 0.9)?
Its mass density is 998.33 ± 0.57 kg/m3.

What about the viscosity ([1]; 303.15 K, w2 = 0.7) of the same compound?
Its viscosity is 2.03 ± 0.05 mPa·s.

What about the viscosity ([1]; 303.15 K, w2 = 0.8) of the same compound?
Its viscosity is 1.52 ± 0.04 mPa·s.

What about the viscosity ([1]; 303.15 K, w2 = 0.9) of the same compound?
Its viscosity is 1.123 ± 0.027 mPa·s.

And the speed of sound ([1]; 313.15 K, w2 = 0.7)?
The speed of sound was 1644 ± 2.6 m/s.

And the speed of sound ([1]; 313.15 K, w2 = 0.8)?
The speed of sound was 1616.3 ± 2.6 m/s.

What about the speed of sound ([1]; 313.15 K, w2 = 0.9) of the same compound?
The speed of sound was 1576.8 ± 2.5 m/s.

What about the mass density ([1]; 313.15 K, w2 = 0.7) of the same compound?
Its mass density is 1001.9 ± 0.58 kg/m3.

What about the mass density ([1]; 313.15 K, w2 = 0.8) of the same compound?
Its mass density is 998.11 ± 0.57 kg/m3.

What about the mass density ([1]; 313.15 K, w2 = 0.9) of the same compound?
Its mass density is 994.6 ± 0.57 kg/m3.

What about the viscosity ([1]; 313.15 K, w2 = 0.7) of the same compound?
The viscosity was 1.522 ± 0.036 mPa·s.

What about the viscosity ([1]; 313.15 K, w2 = 0.8) of the same compound?
Its viscosity is 1.176 ± 0.029 mPa·s.

What about the viscosity ([1]; 313.15 K, w2 = 0.9) of the same compound?
Its viscosity is 0.891 ± 0.022 mPa·s.

And the speed of sound ([1]; 323.15 K, w2 = 0.7)?
The speed of sound was 1627.1 ± 2.6 m/s.

And the speed of sound ([1]; 323.15 K, w2 = 0.8)?
The speed of sound was 1608.9 ± 2.6 m/s.

What about the speed of sound ([1]; 323.15 K, w2 = 0.9) of the same compound?
Its speed of sound is 1580.3 ± 2.5 m/s.

What about the mass density ([1]; 323.15 K, w2 = 0.7) of the same compound?
The mass density was 995.12 ± 0.58 kg/m3.

What about the mass density ([1]; 323.15 K, w2 = 0.8) of the same compound?
Its mass density is 992.41 ± 0.57 kg/m3.

What about the mass density ([1]; 323.15 K, w2 = 0.9) of the same compound?
Its mass density is 989.74 ± 0.57 kg/m3.

And the viscosity ([1]; 323.15 K, w2 = 0.7)?
The viscosity was 1.196 ± 0.029 mPa·s.

What about the viscosity ([1]; 323.15 K, w2 = 0.8) of the same compound?
The viscosity was 0.942 ± 0.024 mPa·s.

What about the viscosity ([1]; 323.15 K, w2 = 0.9) of the same compound?
The viscosity was 0.73 ± 0.02 mPa·s.

Which mass density [2] does the source give for `NCCO` [2-aminoethan-1-ol] here?
Its mass density is 1011.98 ± 0.46 kg/m3.
